In the supplement of paper PMC11451515:

Test system: P12-Ichikawa
Assay: cell viability relative to DMSO control; higher = less cytotoxic
Conditions: 48 h
How it was run: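 Three leukemia lines were tested: NOMO1 and SEM at 500 cells/well and P12-Ichikawa at 1000 cells/well. Each was adapted for at least four passages in each medium and seeded in 5 μl in 1536-well plates, and library compounds in DMSO were pin-dosed from 47 μM to 0.79 nM in 11 threefold steps. After 48 h at 37°C, CellTiter-Glo One luminescence was read. Viability is a percentage relative to DMSO wells on each plate, with cell-free wells as background.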

[1] = HPLM + 10% dialyzed FBS, 0.000781 µM
[2] = HPLM + 10% dialyzed FBS, 0.00234 µM
[3] = HPLM + 10% dialyzed FBS, 0.00702 µM
[4] = HPLM + 10% dialyzed FBS, 0.0211 µM
[5] = HPLM + 10% dialyzed FBS, 0.0632 µM
[6] = HPLM + 10% dialyzed FBS, 0.19 µM
[7] = HPLM + 10% dialyzed FBS, 0.569 µM
[8] = HPLM + 10% dialyzed FBS, 1.71 µM
[9] = HPLM + 10% dialyzed FBS, 5.12 µM
[10] = HPLM + 10% dialyzed FBS, 15.4 µM
[11] = HPLM + 10% dialyzed FBS, 46.1 µM
[12] = RPMI 5 mM glucose + 10% FBS, 0.000781 µM
[13] = RPMI 5 mM glucose + 10% FBS, 0.00234 µM
[14] = RPMI 5 mM glucose + 10% FBS, 0.00702 µM
[15] = RPMI 5 mM glucose + 10% FBS, 0.0211 µM
[16] = RPMI 5 mM glucose + 10% FBS, 0.0632 µM
[17] = RPMI 5 mM glucose + 10% FBS, 0.19 µM
[18] = RPMI 5 mM glucose + 10% FBS, 0.569 µM
[19] = RPMI 5 mM glucose + 10% FBS, 1.71 µM
[20] = RPMI 5 mM glucose + 10% FBS, 5.12 µM
[21] = RPMI 5 mM glucose + 10% FBS, 15.4 µM
[22] = RPMI 5 mM glucose + 10% FBS, 46.1 µM
[23] = RPMI 5 mM glucose + 10% dialyzed FBS, 0.000781 µM
[24] = RPMI 5 mM glucose + 10% dialyzed FBS, 0.00234 µM
[25] = RPMI 5 mM glucose + 10% dialyzed FBS, 0.00702 µM
[26] = RPMI 5 mM glucose + 10% dialyzed FBS, 0.0211 µM
[27] = RPMI 5 mM glucose + 10% dialyzed FBS, 0.0632 µM
[28] = RPMI 5 mM glucose + 10% dialyzed FBS, 0.19 µM
[29] = RPMI 5 mM glucose + 10% dialyzed FBS, 0.569 µM
[30] = RPMI 5 mM glucose + 10% dialyzed FBS, 1.71 µM
[31] = RPMI 5 mM glucose + 10% dialyzed FBS, 5.12 µM
[32] = RPMI 5 mM glucose + 10% dialyzed FBS, 15.4 µM
[33] = RPMI 5 mM glucose + 10% dialyzed FBS, 46.1 µM

CN1CCCN=C1/C=C/c1cccs1.O=C(O)c1cc2ccccc2c(Cc2c(O)c(C(=O)O)cc3ccccc23)c1O
cell viability [1]: 114% | cell viability [2]: 117% | cell viability [3]: 118% | cell viability [4]: 122% | cell viability [5]: 112% | cell viability [6]: 111% | cell viability [7]: 111% | cell viability [8]: 111% | cell viability [9]: 103% | cell viability [10]: 25% | cell viability [11]: 10.2% | cell viability [12]: 109% | cell viability [13]: 121% | cell viability [14]: 114% | cell viability [15]: 122% | cell viability [16]: 114% | cell viability [17]: 114% | cell viability [18]: 105% | cell viability [19]: 114% | cell viability [20]: 110% | cell viability [21]: 115% | cell viability [22]: 101% | cell viability [23]: 114% | cell viability [24]: 123% | cell viability [25]: 115% | cell viability [26]: 115% | cell viability [27]: 120% | cell viability [28]: 115% | cell viability [29]: 108% | cell viability [30]: 112% | cell viability [31]: 114% | cell viability [32]: 98.2% | cell viability [33]: 82.9%

CNc1nccc(-c2cccnc2Oc2cc(C(=O)Nc3cccc(C(F)(F)F)c3)ccc2C)n1
cell viability [1]: 105% | cell viability [2]: 111% | cell viability [3]: 111% | cell viability [4]: 113% | cell viability [5]: 106% | cell viability [6]: 122% | cell viability [7]: 118% | cell viability [8]: 123% | cell viability [9]: 117% | cell viability [10]: 91% | cell viability [11]: 105% | cell viability [12]: 112% | cell viability [13]: 113% | cell viability [14]: 112% | cell viability [15]: 119% | cell viability [16]: 119% | cell viability [17]: 121% | cell viability [18]: 115% | cell viability [19]: 127% | cell viability [20]: 119% | cell viability [21]: 82.8% | cell viability [22]: 103% | cell viability [23]: 105% | cell viability [24]: 101% | cell viability [25]: 104% | cell viability [26]: 114% | cell viability [27]: 112% | cell viability [28]: 110% | cell viability [29]: 112% | cell viability [30]: 120% | cell viability [31]: 111% | cell viability [32]: 90.7% | cell viability [33]: 103%

Cc1cn(-c2cc(NC(=O)c3ccc(C)c(Nc4nccc(-c5cccnc5)n4)c3)cc(C(F)(F)F)c2)cn1
cell viability [1]: 102% | cell viability [2]: 101% | cell viability [3]: 108% | cell viability [4]: 109% | cell viability [5]: 110% | cell viability [6]: 107% | cell viability [7]: 106% | cell viability [8]: 12% | cell viability [9]: 13.1% | cell viability [10]: 9.96% | cell viability [11]: 10.8% | cell viability [12]: 112% | cell viability [13]: 111% | cell viability [14]: 114% | cell viability [15]: 117% | cell viability [16]: 113% | cell viability [17]: 112% | cell viability [18]: 110% | cell viability [19]: 43.6% | cell viability [20]: 11.4% | cell viability [21]: 12.1% | cell viability [22]: 11% | cell viability [23]: 103% | cell viability [24]: 113% | cell viability [25]: 114% | cell viability [26]: 112% | cell viability [27]: 115% | cell viability [28]: 113% | cell viability [29]: 114% | cell viability [30]: 23.9% | cell viability [31]: 24.5% | cell viability [32]: 26.7% | cell viability [33]: 22.7%

COCCCN1CCC(NC(=O)c2cc(Cl)c(N)c3c2OCC3)CC1
cell viability [1]: 114% | cell viability [2]: 124% | cell viability [3]: 127% | cell viability [4]: 132% | cell viability [5]: 132% | cell viability [6]: 134% | cell viability [7]: 134% | cell viability [8]: 133% | cell viability [9]: 146% | cell viability [10]: 132% | cell viability [11]: 124%

CCn1c(-c2nonc2N)nc2cnc(Oc3cccc(NC(=O)c4ccc(OCCN5CCOCC5)cc4)c3)cc21
cell viability [1]: 110% | cell viability [2]: 107% | cell viability [3]: 111% | cell viability [4]: 111% | cell viability [5]: 112% | cell viability [6]: 109% | cell viability [7]: 112% | cell viability [8]: 116% | cell viability [9]: 94.9% | cell viability [10]: 77% | cell viability [11]: 70.1% | cell viability [12]: 106% | cell viability [13]: 122% | cell viability [14]: 107% | cell viability [15]: 115% | cell viability [16]: 107% | cell viability [17]: 113% | cell viability [18]: 98.5% | cell viability [19]: 102% | cell viability [20]: 89.5% | cell viability [21]: 66.3% | cell viability [22]: 55.4% | cell viability [23]: 104% | cell viability [24]: 116% | cell viability [25]: 127% | cell viability [26]: 117% | cell viability [27]: 115% | cell viability [28]: 124% | cell viability [29]: 117% | cell viability [30]: 102% | cell viability [31]: 102% | cell viability [32]: 74.9% | cell viability [33]: 69.5%

FC1=CC=C(SC/2=N/N3\C=N/C(=O)/C(=C3/C=C2)C4=C(Cl)C=CC=C4Cl)C(=C1)F
cell viability [1]: 100% | cell viability [2]: 104% | cell viability [3]: 114% | cell viability [4]: 108% | cell viability [5]: 114% | cell viability [6]: 102% | cell viability [7]: 117% | cell viability [8]: 114% | cell viability [9]: 114% | cell viability [10]: 94.9% | cell viability [11]: 33.6% | cell viability [12]: 105% | cell viability [13]: 101% | cell viability [14]: 95.7% | cell viability [15]: 108% | cell viability [16]: 106% | cell viability [17]: 104% | cell viability [18]: 106% | cell viability [19]: 98.6% | cell viability [20]: 93.4% | cell viability [21]: 66.2% | cell viability [22]: 24.8% | cell viability [23]: 96.4% | cell viability [24]: 104% | cell viability [25]: 110% | cell viability [26]: 104% | cell viability [27]: 107% | cell viability [28]: 107% | cell viability [29]: 105% | cell viability [30]: 120% | cell viability [31]: 105% | cell viability [32]: 86% | cell viability [33]: 38.1%

CCC(C)(C)c1ccc(CC(C)CN2C[C@@H](C)O[C@@H](C)C2)cc1 (stereo not given in full)
cell viability [1]: 81.2% | cell viability [2]: 81.5% | cell viability [3]: 82.8% | cell viability [4]: 91.5% | cell viability [5]: 97.3% | cell viability [6]: 84.6% | cell viability [7]: 91.9% | cell viability [8]: 94.9% | cell viability [9]: 89% | cell viability [10]: 87.8% | cell viability [11]: 91.6% | cell viability [12]: 88.9% | cell viability [13]: 81.4% | cell viability [14]: 88.1% | cell viability [15]: 87.8% | cell viability [16]: 89.1% | cell viability [17]: 82.3% | cell viability [18]: 93.9% | cell viability [19]: 85.6% | cell viability [20]: 90.7% | cell viability [21]: 86.2% | cell viability [22]: 88% | cell viability [23]: 72% | cell viability [24]: 76.7% | cell viability [25]: 78.3% | cell viability [26]: 79.6% | cell viability [27]: 81.8% | cell viability [28]: 80.6% | cell viability [29]: 84% | cell viability [30]: 81.8% | cell viability [31]: 85.5% | cell viability [32]: 76.3% | cell viability [33]: 75.8%

CC[C@H](C)[N]1C=C(C)C2=C1C=C(C=C2C(=O)NC\C3=C(C)\C=C(\C)NC3=O)C4=CC=C(N=C4)N5CCNCC5
cell viability [1]: 109% | cell viability [2]: 116% | cell viability [3]: 114% | cell viability [4]: 115% | cell viability [5]: 115% | cell viability [6]: 122% | cell viability [7]: 116% | cell viability [8]: 117% | cell viability [9]: 114% | cell viability [10]: 118% | cell viability [11]: 109% | cell viability [12]: 104% | cell viability [13]: 116% | cell viability [14]: 117% | cell viability [15]: 118% | cell viability [16]: 117% | cell viability [17]: 113% | cell viability [18]: 126% | cell viability [19]: 129% | cell viability [20]: 117% | cell viability [21]: 125% | cell viability [22]: 106% | cell viability [23]: 103% | cell viability [24]: 107% | cell viability [25]: 108% | cell viability [26]: 113% | cell viability [27]: 115% | cell viability [28]: 114% | cell viability [29]: 116% | cell viability [30]: 132% | cell viability [31]: 115% | cell viability [32]: 108% | cell viability [33]: 93.1%

CC(C)C(=O)Oc1ccc(CO)cc1[C@H](CCN(C(C)C)C(C)C)c1ccccc1
cell viability [1]: 92% | cell viability [2]: 87.1% | cell viability [3]: 89.2% | cell viability [4]: 85.3% | cell viability [5]: 90.1% | cell viability [6]: 99% | cell viability [7]: 75.7% | cell viability [8]: 69.3% | cell viability [9]: 86.2% | cell viability [10]: 76.8% | cell viability [11]: 81.8% | cell viability [12]: 81.1% | cell viability [13]: 82.5% | cell viability [14]: 85.6% | cell viability [15]: 83.4% | cell viability [16]: 83.2% | cell viability [17]: 83.9% | cell viability [18]: 86.1% | cell viability [19]: 84.9% | cell viability [20]: 81.5% | cell viability [21]: 80.7% | cell viability [22]: 83.4% | cell viability [23]: 78.9% | cell viability [24]: 76.3% | cell viability [25]: 82.9% | cell viability [26]: 80.1% | cell viability [27]: 87% | cell viability [28]: 84.2% | cell viability [29]: 79.7% | cell viability [30]: 78.8% | cell viability [31]: 77.1% | cell viability [32]: 73.1% | cell viability [33]: 78.1%
